In US20250296938A1, “Compounds that Interact with the Ras Superfamily for the Treatment of Cancers, Inflammatory Diseases, Rasopathies, and Fibrotic Disease” (SHY Therapeutics, LLC, priority 2018, published 2025):
Like-named read-outs stand apart in the source and are kept apart here.

Tests used:
Test in all cases: Ras GTP binding domain inhibition assay (Cy3-GTP/Cy5-GTP competition)
[1] = tested on: KRas wild type; parameters: species or system human; conditions: 20 μM; for KRas wild type + SOS: % inh.: with SOS; for KRas wild type: % inh.: without SOS
How it was run: (§1)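 His-tagged Ras immobilized on nickel-coated wells in Tris buffer (pH 7.4 or 7.0) with 1 mM MgCl2, 1 mM DTT, 1% DMSO. Compound (20 μM, or serial dilution for IC50) incubated 3 hours at room temperature, ± Sos (residues 556-1049) in final hour. Bound 100 nM Cy3-/Cy5-GTP read after 45 minutes and washing.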

[2] = tested on: KRas Q61H mutant; parameters: species or system human; conditions: 20 μM; for KRas Q61H mutant + SOS: % inh.: with SOS; for KRas Q61H mutant: % inh.: without SOS
How it was run: as §1

[3] = tested on: KRas G12C mutant; parameters: species or system human; conditions: 20 μM; for KRas G12C mutant + SOS: % inh.: with SOS; for KRas G12C mutant: % inh.: without SOS
How it was run: as §1

[4] = molecular target: T1, KRas G12D mutant (Homo sapiens, UniProt P01116, G12D); conditions: 20 μM
T1 construct: fused on or other part: His tag, used for capture on nickel-coated plates
How it was run: as §1

[5] = with SOS, read-out: KRas G-12D mutant + SOS: % inh.
[6] = without SOS, read-out: KRas G12D mutant: % inh.

Compound | KRas wild type + SOS: % inh. [1] | KRas wild type: % inh. [1] | KRas Q61H mutant + SOS: % inh. [2] | KRas Q61H mutant: % inh. [2] | KRas G12C mutant + SOS: % inh. [3] | KRas G12C mutant: % inh. [3] | inhibition at 20 µM [4, 5] [%] | inhibition at 20 µM [4, 6] [%]
COCCc1ccc(Oc2nc(-c3ccccn3)nc(O)c2OC)cc1 [drawing 814] | B (26-50% inhibition) | D (76-100% inhibition) | C (51-75% inhibition) | B (26-50% inhibition) | B (26-50% inhibition) | A (1-25% inhibition) | 26 to 50 | 51 to 75
COc1ccc(Oc2nc(-c3ccccn3)nc(O)c2OC)cc1 [drawing 815] | B (26-50% inhibition) | D (76-100% inhibition) | C (51-75% inhibition) | D (76-100% inhibition) | C (51-75% inhibition) | D (76-100% inhibition) | 26 to 50 | 76 to 100
Oc1nc(-c2cn3ccccc3n2)nc2c(-c3ccccn3)csc12 [drawing 816] | A (1-25% inhibition) | C (51-75% inhibition) | B (26-50% inhibition) | B (26-50% inhibition) | B (26-50% inhibition) | B (26-50% inhibition) | 1 to 25 | 26 to 50
O=C(NCc1ccccc1)c1nc(-c2ccccn2)nc(O)c1O [drawing 821] | B (26-50% inhibition) | D (76-100% inhibition) | C (51-75% inhibition) | D (76-100% inhibition) | C (51-75% inhibition) | B (26-50% inhibition) | 51 to 75 | 51 to 75
COC1CCN(c2nc(-c3nccn3C)nc3sc(Br)c(-c4ccccc4)c23)C1 (stereo not drawn) [drawing 822] | D (76-100% inhibition) | C (51-75% inhibition) | C (51-75% inhibition) | B (26-50% inhibition) | D (76-100% inhibition) | B (26-50% inhibition) | 51 to 75 | 26 to 50
Cn1ccnc1-c1nc(O)c(O)c(C(=O)NC2CCC2)n1 [drawing 825] | B (26-50% inhibition) | C (51-75% inhibition) | C (51-75% inhibition) | C (51-75% inhibition) | B (26-50% inhibition) | C (51-75% inhibition) | 26 to 50 | 51 to 75
Cn1ccnc1-c1nc(O)c(O)c(C(=O)N2CCCCC2)n1 [drawing 826] | A (1-25% inhibition) | C (51-75% inhibition) | B (26-50% inhibition) | B (26-50% inhibition) | A (1-25% inhibition) | B (26-50% inhibition) | 1 to 25 | 26 to 50
Cn1ccnc1-c1nc(O)c(O)c(C(=O)NC2CCCC2)n1 [drawing 827] | B (26-50% inhibition) | C (51-75% inhibition) | C (51-75% inhibition) | C (51-75% inhibition) | B (26-50% inhibition) | C (51-75% inhibition) | 26 to 50 | 51 to 75
Cn1ccnc1-c1nc(O)c(O)c(C(=O)N2CCCC2)n1 [drawing 828] | A (1-25% inhibition) | B (26-50% inhibition) | B (26-50% inhibition) | C (51-75% inhibition) | A (1-25% inhibition) | B (26-50% inhibition) | 1 to 25 | 26 to 50
CCN(CC)C(=O)c1nc(-c2nccn2C)nc(O)c1O [drawing 829] | A (1-25% inhibition) | B (26-50% inhibition) | B (26-50% inhibition) | B (26-50% inhibition) | A (1-25% inhibition) | A (1-25% inhibition) | 1 to 25 | 51 to 75
CC(C)NC(=O)c1nc(-c2nccn2C)nc(O)c1O [drawing 830] | B (26-50% inhibition) | C (51-75% inhibition) | C (51-75% inhibition) | C (51-75% inhibition) | B (26-50% inhibition) | C (51-75% inhibition) | 26 to 50 | 51 to 75
O=C(c1nc(-c2ccccn2)nc(O)c1O)N1CCCC1 [drawing 831] | A (1-25% inhibition) | C (51-75% inhibition) | B (26-50% inhibition) | B (26-50% inhibition) | A (1-25% inhibition) | B (26-50% inhibition) | 1 to 25 | 51 to 75
O=C(c1nc(-c2ccccn2)nc(O)c1O)N1CCc2ccccc2C1 [drawing 832] | B (26-50% inhibition) | C (51-75% inhibition) | B (26-50% inhibition) | C (51-75% inhibition) | B (26-50% inhibition) | C (51-75% inhibition) | 26 to 50 | 51 to 75
Oc1nc(-c2ncc3n2CCCC3)nc2c(-c3ccccn3)csc12 [drawing 833] | B (26-50% inhibition) | C (51-75% inhibition) | C (51-75% inhibition) | C (51-75% inhibition) | C (51-75% inhibition) | D (76-100% inhibition) | 51 to 75 | 51 to 75
Oc1nc(-c2ncc3ccccn23)nc2c(-c3ccccn3)csc12 [drawing 834] | C (51-75% inhibition) | C (51-75% inhibition) | C (51-75% inhibition) | C (51-75% inhibition) | C (51-75% inhibition) | C (51-75% inhibition) | 51 to 75 | 76 to 100
COc1cccc(-c2sc3nc(-c4nccn4C)nc(N4CCC(OC)C4)c3c2-c2ccccc2)c1F.Cl (stereo not drawn) [drawing 838] | D (76-100% inhibition) | C (51-75% inhibition) | D (76-100% inhibition) | B (26-50% inhibition) | D (76-100% inhibition) | B (26-50% inhibition) | 51 to 75 | 51 to 75
COc1ccc(Cn2cnc(-c3nc(O)c4scc(-c5ccccn5)c4n3)c2)cc1 [drawing 839] | A (1-25% inhibition) | A (1-25% inhibition) | A (1-25% inhibition) | B (26-50% inhibition) | A (1-25% inhibition) | B (26-50% inhibition) | 0 | 1 to 25
Cc1cc(Cn2ccnc2-c2nc(O)c3scc(-c4ccccn4)c3n2)on1 [drawing 846] | B (26-50% inhibition) | C (51-75% inhibition) | C (51-75% inhibition) | B (26-50% inhibition) | C (51-75% inhibition) | B (26-50% inhibition) | 26 to 50 | 51 to 75
Oc1nc(-c2cn(-c3ccccc3)cn2)nc2c(-c3ccccn3)csc12 [drawing 847] | A (1-25% inhibition) | A (1-25% inhibition) | A (1-25% inhibition) | B (26-50% inhibition) | A (1-25% inhibition) | 0 (0% inhibition) | 1 to 25 | 1 to 25
Oc1nc(-c2cn3cccnc3n2)nc2c(-c3ccccn3)csc12 [drawing 848] | A (1-25% inhibition) | A (1-25% inhibition) | A (1-25% inhibition) | A (1-25% inhibition) | A (1-25% inhibition) | 0 (0% inhibition) | 1 to 25 | 1 to 25
COC1CCN(c2nc(-c3nccn3C)nc3sc(-c4ccccc4Cl)c(-c4cscn4)c23)C1 (stereo not drawn) [drawing 849] | C (51-75% inhibition) | C (51-75% inhibition) | C (51-75% inhibition) | B (26-50% inhibition) | C (51-75% inhibition) | B (26-50% inhibition) | 51 to 75 | 51 to 75
